Source: patent US6355799B1, “Substituted benzene compounds, process for their preparation, and herbicidal and defoliant compositions containing them” (ISK Americas Incorporated, priority 1997, dated 2002)

Tests used:
Assay type in all cases: in vivo
[1] = test system: upland rice (Oryza sp., var. Tebonnet, RICE); experiment: Post-emerge test, crop safety; conditions: rating scale 0-100 (0 no damage, 100 complete death), 14 days after application
How it was run: (§1)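 Plants grown in 10 cm pots of sandy loam mix received acetone-dissolved compounds through a moving flat-fan nozzle. Doses ranged from 15 to 1000 g ai/ha. Pre-emerge pots were seeded one day earlier, post-emerge pots 8–21 days earlier. Fourteen days on, each pot was graded 0–100 for damage.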

[2] = test system: field corn (Zea mays L., var. Dekalb 535, CORN); experiment: Post-emerge test, crop safety; conditions: rating scale 0-100 (0 no damage, 100 complete death), 14 days after application
How it was run: as §1

[3] = test system: redroot pigweed (Amaranthus retroflexus, AMARE); experiment: Pre-emerge test, greenhouse herbicide activity screening; conditions: rating scale 0-100, 14 days after application
How it was run: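 Compounds in acetone were track-sprayed at 187 l/ha, 15–1000 g ai/ha, onto sandy loam pots. Pre-emerge seeds were sown one day before spraying, with surface watering afterwards. Post-emerge plants were at the 2–3 leaf stage and sprayed with 0.25% v/v non-ionic surfactant. Injury was rated 0–100 at 14 days.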

[4] = test system: lambsquarters (Chenopodium album, CHEAL); experiment: as above; conditions: rating scale 0-100, 14 days after application
How it was run: (§2)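 Rating: 0–100 visual injury, 14 DAA. Application: acetone, 187 l/ha, 15–1000 g ai/ha, flat-fan track sprayer with nozzle 40–45 cm above soil or canopy. Post-emerge runs used 0.25% v/v surfactant on 2–3 leaf plants.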

[5] = test system: johnsongrass (Sorghum halepense, SORHA); experiment: as above; conditions: rating scale 0-100, 14 days after application
How it was run: as §2

[6] = test system: barnyardgrass (Echinochloa crus-galli, ECHCG); experiment: as above; conditions: rating scale 0-100, 14 days after application
How it was run: as §2

[7] = test system: large crabgrass (Digitaria sanguinalis, DIGSA); experiment: as above; conditions: rating scale 0-100, 14 days after application
How it was run: as §2

[8] = test system: sicklepod (Cassia obtusifolia, CASOB); experiment: as above; conditions: rating scale 0-100, 14 days after application
How it was run: as §2

[9] = test system: ivyleaf morningglory (Ipomoea hederacea, IPOHE); experiment: as above; conditions: rating scale 0-100, 14 days after application
How it was run: as §2

[10] = test system: velvetleaf (Abutilon theophrasti, ABUTH); experiment: as above; conditions: rating scale 0-100, 14 days after application
How it was run: as §2

[11] = test system: green foxtail (Setaria viridis, SETVI); experiment: as above; conditions: rating scale 0-100, 14 days after application
How it was run: as §2

[12] = test system: redroot pigweed (Amaranthus retroflexus, AMARE); experiment: Post-emerge test, greenhouse herbicide activity screening; conditions: rating scale 0-100 (0 no damage, 100 complete death), 14 days after application
How it was run: (§3)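 Applied at 15–1000 g ai/ha from acetone in 187 l/ha spray volume. Post-emergence applications included 0.25% v/v non-ionic surfactant and reached plants sown 8–21 days before. Pre-emergence applications were incorporated by surface watering. Efficacy or crop damage was rated on a 0–100 scale after 14 days.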

[13] = test system: lambsquarters (Chenopodium album, CHEAL); experiment: as above; conditions: rating scale 0-100 (0 no damage, 100 complete death), 14 days after application
How it was run: as §3

[14] = test system: common ragweed (Ambrosia artemisizfolia L., AMBEL); experiment: as above; conditions: rating scale 0-100 (0 no damage, 100 complete death), 14 days after application
How it was run: as §3

[15] = test system: johnsongrass (Sorghum halepense, SORHA); experiment: as above; conditions: rating scale 0-100 (0 no damage, 100 complete death), 14 days after application
How it was run: as §3

[16] = test system: barnyardgrass (Echinochloa crus-galli, ECHCG); experiment: as above; conditions: rating scale 0-100 (0 no damage, 100 complete death), 14 days after application
How it was run: as §3

[17] = test system: large crabgrass (Digitaria sanguinalis, DIGSA); experiment: as above; conditions: rating scale 0-100 (0 no damage, 100 complete death), 14 days after application
How it was run: as §3

[18] = test system: sicklepod (Cassia obtusifolia, CASOB); experiment: as above; conditions: rating scale 0-100 (0 no damage, 100 complete death), 14 days after application
How it was run: as §3

[19] = test system: ivyleaf morningglory (Ipomoea hederacea, IPOHE); experiment: as above; conditions: rating scale 0-100 (0 no damage, 100 complete death), 14 days after application
How it was run: as §3

[20] = test system: velvetleaf (Abutilon theophrasti, ABUTH); experiment: as above; conditions: rating scale 0-100 (0 no damage, 100 complete death), 14 days after application
How it was run: as §3

[21] = test system: green foxtail (Setaria viridis, SETVI); experiment: as above; conditions: rating scale 0-100 (0 no damage, 100 complete death), 14 days after application
How it was run: as §3

[22] = test system: upland rice (Oryza sp., var. Tebonnet, RICE); experiment: Pre-emerge test, crop safety; conditions: rating scale 0-100, 14 days after application
How it was run: (§4)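 Fourteen days after spraying, crop and weed injury was graded visually from 0, no effect, to 100, every plant dead. Test substances were dissolved in acetone and applied at 15–1000 g ai/ha with a flat-fan nozzle. Application was either pre-emergence, one day after sowing, or post-emergence at the 2–3 leaf stage.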

[23] = test system: field corn (Zea mays L., var. Dekalb 535, CORN); experiment: Pre-emerge test, crop safety; conditions: rating scale 0-100, 14 days after application
How it was run: as §4

CCCOC(=O)C(C)(Cl)Cc1c(OC)c(Cl)cc(F)c1-n1c(=O)cc(C(F)(F)F)n(C)c1=O (stereo not shown) [14-35]
Post-emerge phytotoxicity rating RICE (crop damage) ([1]; Rate 63 g ai/ha): 80 | Post-emerge phytotoxicity rating RICE (crop damage) ([1]; Rate 250 g ai/ha): 100 | Post-emerge phytotoxicity rating CORN (crop damage) ([2]; Rate 63 g ai/ha): 100 | Post-emerge phytotoxicity rating CORN (crop damage) ([2]; Rate 250 g ai/ha): 100 | Pre-emerge herbicidal activity, phytotoxicity rating AMARE ([3]; 63 g ai/ha): 100 | Pre-emerge herbicidal activity, phytotoxicity rating AMARE ([3]; 250 g ai/ha): 100 | Pre-emerge herbicidal activity, phytotoxicity rating CHEAL ([4]; 63 g ai/ha): 50 | Pre-emerge herbicidal activity, phytotoxicity rating CHEAL ([4]; 250 g ai/ha): 100 | Pre-emerge herbicidal activity, phytotoxicity rating SORHA ([5]; 63 g ai/ha): 0 | Pre-emerge herbicidal activity, phytotoxicity rating SORHA ([5]; 250 g ai/ha): 50 | Pre-emerge herbicidal activity, phytotoxicity rating ECHCG ([6]; 63 g ai/ha): 0 | Pre-emerge herbicidal activity, phytotoxicity rating ECHCG ([6]; 250 g ai/ha): 99 | Pre-emerge herbicidal activity, phytotoxicity rating DIGSA ([7]; 63 g ai/ha): 50 | Pre-emerge herbicidal activity, phytotoxicity rating DIGSA ([7]; 250 g ai/ha): 95 | Pre-emerge herbicidal activity, phytotoxicity rating CASOB ([8]; 63 g ai/ha): 0 | Pre-emerge herbicidal activity, phytotoxicity rating CASOB ([8]; 250 g ai/ha): 0 | Pre-emerge herbicidal activity, phytotoxicity rating IPOHE ([9]; 63 g ai/ha): 0 | Pre-emerge herbicidal activity, phytotoxicity rating IPOHE ([9]; 250 g ai/ha): 0 | Pre-emerge herbicidal activity, phytotoxicity rating ABUTH ([10]; 63 g ai/ha): 100 | Pre-emerge herbicidal activity, phytotoxicity rating ABUTH ([10]; 250 g ai/ha): 100 | Pre-emerge herbicidal activity, phytotoxicity rating SETVI ([11]; 63 g ai/ha): 80 | Pre-emerge herbicidal activity, phytotoxicity rating SETVI ([11]; 250 g ai/ha): 100 | Post-emerge Herbicidal Activity, phytotoxicity rating AMARE ([12]; Rate 63 g ai/ha): 100 | Post-emerge Herbicidal Activity, phytotoxicity rating AMARE ([12]; Rate 250 g ai/ha): 100 | Post-emerge Herbicidal Activity, phytotoxicity rating CHEAL ([13]; Rate 63 g ai/ha): 100 | Post-emerge Herbicidal Activity, phytotoxicity rating CHEAL ([13]; Rate 250 g ai/ha): 100 | Post-emerge Herbicidal Activity, phytotoxicity rating AMBEL ([14]; Rate 63 g ai/ha): 100 | Post-emerge Herbicidal Activity, phytotoxicity rating AMBEL ([14]; Rate 250 g ai/ha): 100 | Post-emerge Herbicidal Activity, phytotoxicity rating SORHA ([15]; Rate 63 g ai/ha): 30 | Post-emerge Herbicidal Activity, phytotoxicity rating SORHA ([15]; Rate 250 g ai/ha): 70 | Post-emerge Herbicidal Activity, phytotoxicity rating ECHCG ([16]; Rate 63 g ai/ha): 100 | Post-emerge Herbicidal Activity, phytotoxicity rating ECHCG ([16]; Rate 250 g ai/ha): 100 | Post-emerge Herbicidal Activity, phytotoxicity rating DIGSA ([17]; Rate 63 g ai/ha): 50 | Post-emerge Herbicidal Activity, phytotoxicity rating DIGSA ([17]; Rate 250 g ai/ha): 95 | Post-emerge Herbicidal Activity, phytotoxicity rating CASOB ([18]; Rate 63 g ai/ha): 0 | Post-emerge Herbicidal Activity, phytotoxicity rating CASOB ([18]; Rate 250 g ai/ha): 90 | Post-emerge Herbicidal Activity, phytotoxicity rating IPOHE ([19]; Rate 63 g ai/ha): 70 | Post-emerge Herbicidal Activity, phytotoxicity rating IPOHE ([19]; Rate 250 g ai/ha): 100 | Post-emerge Herbicidal Activity, phytotoxicity rating ABUTH ([20]; Rate 63 g ai/ha): 95 | Post-emerge Herbicidal Activity, phytotoxicity rating ABUTH ([20]; Rate 250 g ai/ha): 100 | Post-emerge Herbicidal Activity, phytotoxicity rating SETVI ([21]; Rate 63 g ai/ha): 50 | Post-emerge Herbicidal Activity, phytotoxicity rating SETVI ([21]; Rate 250 g ai/ha): 95 | Pre-emerge phytotoxicity rating, crop damage RICE ([22]; 63 g ai/ha): 0 | Pre-emerge phytotoxicity rating, crop damage RICE ([22]; 250 g ai/ha): 10 | Pre-emerge phytotoxicity rating, crop damage CORN ([23]; 63 g ai/ha): 0 | Pre-emerge phytotoxicity rating, crop damage CORN ([23]; 250 g ai/ha): 25
